Assay results: PMC3584069, “The Interaction of the Chemotherapeutic Drug Chlorambucil with Human Glutathione Transferase A1-1: Kinetic and Structural Analysis” (PLoS ONE, 2013)

Legend:
[1] = molecular target: T1, human glutathione transferase A1-1 (hGSTA1-1) (Homo sapiens, UniProt P08263); assay: X-ray crystal structure (GSH moiety of the GSH–CBL adduct); initial velocity kinetics with GSH as variable substrate; format: binding
T1 construct: gene GSTA1; recombinant purified hGSTA1-1 homodimer
T1 sequence (P08263 2-222): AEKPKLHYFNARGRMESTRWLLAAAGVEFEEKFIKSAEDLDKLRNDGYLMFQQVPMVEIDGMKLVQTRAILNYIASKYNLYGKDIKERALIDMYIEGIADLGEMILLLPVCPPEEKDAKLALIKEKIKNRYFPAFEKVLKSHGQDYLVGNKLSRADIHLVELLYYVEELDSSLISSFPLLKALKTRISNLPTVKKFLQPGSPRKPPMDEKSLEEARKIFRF

[2] = molecular target: T1, human glutathione transferase A1-1 (hGSTA1-1); assay: irreversible enzyme inactivation kinetics in absence of GSH (apparent KD, fast phase), MALDI-TOF MS of CBL-modified subunit, DTNB cysteine titration; also a substrate in presence of GSH; format: biochemical; details: read-out: Kd
[3] = molecular target: the molecule itself; assay: crystal structure; hGSTA1-1 (19.7 mg/mL) incubated with CBL at 1:3 molar ratio; 17-20% PEG 2000, 0.1 M Tris-HCl pH 7.5, 0.1 mM beta-mercaptoethanol, vapor diffusion at 20°C; 2.1 Å; monomers A and B in the model

N[C@@H](CCC(=O)N[C@@H](CS)C(=O)NCC(=O)O)C(=O)O [GSH]
X-ray crystal structure (GSH moiety of the GSH-CBL adduct); initial velocity kin [1]: Difference Fourier electron density maps indicate the presence of a GSH moiety in the G-site of the enzyme

O=C(O)CCCc1ccc(N(CCCl)CCCl)cc1 [chlorambucil]
KI (inactivation) [2]: 2950 ± 500 µM

B1: human glutathione transferase A1-1 (enzyme)
chain: KPKLHYFNARGRMESTRWLLAAAGVEFEEKFIKSAEDLDKLRNDGYLMFQQVPMVEIDGMKLVQTRAILNYIASKYNLYGKDIKERALIDMYIEGIADLGEMILLLPVCPPEEKDAKLALIKEKIKNRYFPAFEKVLKSHGQDYLVGNKLSRADIHLVELLYYVEELDSSLISSFPLLKALKTRISNLPTVKKFLQPGSPRKPPMDEKSLEEARKIF
notes: glutathione transferase A1 subunit, human; the crystal model holds residues 4-220 (monomer A) and 3-221 (monomer B, without 112-115); Homodimer; MALDI-TOF of the unmodified subunit: m/z 25,482; also called hGSTA1-1; GSTA1-1; source: recombinant
binding result [3]: binds
